From US7964628B2, “Fibrinogen receptor antagonists and their use” (Piramal Life Sciences Limited, priority 2003, dated 2011)

Columns and labels:
[1] = tested on: ADP-induced human platelet aggregation; experiment: Mouse ex vivo studies: plasma of orally dosed mice tested on ADP-induced human platelet aggregation; conditions: 1 mg/kg, p.o; for Last time point * (time in hours): time point after which the activity fell below 30%; for Activity (%) at last time point / Activity (%) at peak: ex vivo in mice
Experimental: Mouse ex vivo Studies: (Weller, T., Alig, L., et al J. Med. Chem., 1996, 39, 3139-3147)
Mice of either sex weighing between 25-35 g were orally fed the test compound. Blood was collected, from the abdominal aorta into ACD solution, at different time-points ranging from 15 min to 6 h. The blood samples were centrifuged at 2000×g for 10 min to get PFP. This plasma was separated and used as test sample to study its effect on ADP-induced human platelet aggregation (Table 3).

[2] = tested on: ADP-induced guinea pig platelet aggregation; experiment: Guinea pig ex vivo studies: ADP-induced guinea pig platelet aggregation after oral dosing; conditions: ex vivo in Guinea pigs, 3.1 mg/kg, p.o; for Last time point * (time in hours): time point after which the activity fell below 30%
Experimental: Guinea Pig Ex vivo Studies:
Guinea pigs of either sex weighing between 500-800 g were orally fed the test compound. Blood was collected, from the carotid artery into ACD solution, at different time-points ranging from 1 to 24 h. PRP was separated and the platelet count adjusted to 3×10^8 platelets/ml using PFP. The effect of the test compound on ADP-induced guinea pig platelet aggregation was studied (Table 4).

Row | SMILES | melting point | further results
1 | CCOC(=O)COc1ccc(C(CN2Cc3cc(C(=N)NO)ccc3C2=O)=NO)cc1OCC(=O)OCC [Example 23, (2-Ethoxycarbonylmethoxy-4-{2-[5-(N-hydroxycarbamimidoyl)-1-oxo-1,3-dihydro-isoindol-2-yl]-1-hydroxyimino-ethyl}-phenoxy)-acetic acid ethyl ester] | 181 to 182 °C | Peak activity (time in hours) [1]: 1 h; Last time point * (time in hours) [1]: 4 h; Activity (%) at last time point [1]: 35%; Activity (%) at peak [1]: 100%; Activity (%) at last time point [2]: 48%; Activity (%) at peak [2]: 100%; Peak activity (time in hours) [2]: 7 h; Last time point * (time in hours) [2]: 13 h
2 | CCOC(=O)COc1c(SCC)cc(C(=O)CN2Cc3cc(C(=N)NO)ccc3C2=O)cc1SCC [Example 37, (2,6-Bis-ethylsulfanyl-4-{2-[5-(N-hydroxycarbamimidoyl)-1-oxo-1,3-dihydro-isoindol-2-yl]-acetyl}-phenoxy)-acetic acid ethyl ester] | 183 to 184 °C | 
3 | CCOC(=O)COc1ccc(C(=O)CN2Cc3cc(C(=N)NO)ccc3C2=O)cc1N(CC(=O)OCC)S(C)(=O)=O [Example 40, (2-{Ethoxycarbonylmethyl-methanesulfonyl-amino}-4-{2-[5-(N-hydroxycarbamimidoyl)-1-oxo-1,3-dihydro-isoindol-2-yl]-acetyl}-phenoxy)-acetic acid ethyl ester] | 165 to 167 °C | 
4 | CCOC(=O)COc1ccc(C(=O)CN2Cc3cc(C(=N)NO)ccc3C2=O)c(O)c1 [Example 42, (3-Hydroxy-4-{2-[5-(N-hydroxycarbamimidoyl)-1-oxo-1,3-dihydro-isoindol-2-yl]-acetyl}-phenoxy)-acetic acid ethyl ester] | 197 to 198 °C | Peak activity (time in hours) [1]: 0.75 h; Last time point * (time in hours) [1]: 6 h; Activity (%) at last time point [1]: 62%; Activity (%) at peak [1]: 100%; Activity (%) at last time point [2]: 78%; Activity (%) at peak [2]: 100%; Peak activity (time in hours) [2]: 7 h; Last time point * (time in hours) [2]: 15 h
5 | N=C(NO)c1ccc2c(c1)CN(CC(=O)c1ccc(OCC(=O)OCc3ccccc3)cc1O)C2=O [Example 43, (3-Hydroxy-4-{2-[5-(N-hydroxycarbamimidoyl)-1-oxo-1,3-dihydro-isoindol-2-yl]-acetyl}-phenoxy)-acetic acid benzyl ester] | 183 to 184 °C | 
6 | CCOC(=O)COc1ccc(C(=O)CN2Cc3cc(C(=N)NO)ccc3C2=O)c(OC)c1 [Example 45, (4-{2-[5-(N-Hydroxycarbamimidoyl)-1-oxo-1,3-dihydro-isoindol-2-yl]-acetyl}-3-methoxy-phenoxy)-acetic acid ethyl ester] | 163 to 165 °C | 
7 | CCOC(=O)COc1ccc(C(=O)CN2Cc3cc(C(=N)NO)ccc3C2=O)c(OCC(=O)OCC)c1 [Example 48, (3-Ethoxycarbonylmethoxy-4-{2-[5-(N-hydroxycarbamimidoyl)-1-oxo-1,3-dihydro-isoindol-2-yl]-acetyl}-phenoxy)-acetic acid ethyl ester] | 139 to 140 °C | 
8 | CCOC(=O)COc1ccc(C(=O)CN2Cc3cc(C(=N)NO)ccc3C2=O)c(O)c1SCC [Example 49, (2-Ethylsulfanyl-3-hydroxy-4-{2-[5-(N-hydroxycarbamimidoyl)-1-oxo-1,3-dihydro-isoindol-2-yl]-acetyl}-phenoxy)-acetic acid ethyl ester] | 182 to 183 °C | Peak activity (time in hours) [1]: 0.75 h; Last time point * (time in hours) [1]: 3 h; Activity (%) at last time point [1]: 38%; Activity (%) at peak [1]: 65%
9 | CCOC(=O)COc1cc(O)c(C(=O)CN2Cc3cc(C(=N)NO)ccc3C2=O)cc1CC [Example 50, (2-Ethyl-5-hydroxy-4-{2-[5-(N-hydroxycarbamimidoyl)-1-oxo-1,3-dihydro-isoindol-2-yl]-acetyl}-phenoxy)-acetic acid ethyl ester] | 218 to 219 °C | 
10 | CCOC(=O)COc1cc(O)c(C(=O)CN2Cc3cc(C(=N)NO)ccc3C2=O)cc1C(C)C [Example 51, (5-Hydroxy-4-{2-[5-(N-hydroxycarbamimidoyl)-1-oxo-1,3-dihydro-isoindol-2-yl]-acetyl}-2-isopropyl-phenoxy)-acetic acid ethyl ester] | 207 to 209 °C | 
11 | CCOC(=O)COc1cc(O)c(C(=O)CN2Cc3cc(C(=N)NO)ccc3C2=O)cc1C(C)(C)C [Example 52, (2-tert-Butyl-5-hydroxy-4-{2-[5-(N-hydroxycarbamimidoyl)-1-oxo-1,3-dihydro-isoindol-2-yl]-acetyl}-phenoxy)-acetic acid ethyl ester] | 177 to 178 °C | 
12 | CCOC(=O)COc1ccc(C(=O)CN2Cc3cc(C(=N)NO)ccc3C2=O)c(O)c1CC [Example 57, (2-Ethyl-3-hydroxy-4-{2-[5-(N-hydroxycarbamimidoyl)-1-oxo-1,3-dihydro-isoindol-2-yl]-acetyl}-phenoxy)-acetic acid ethyl ester] | 196 to 197 °C | 
13 | CCCc1c(OCC(=O)OCC)ccc(C(=O)CN2Cc3cc(C(=N)NO)ccc3C2=O)c1O [Example 58, (3-Hydroxy-4-{2-[5-(N-hydroxycarbamimidoyl)-1-oxo-1,3-dihydro-isoindol-2-yl]-acetyl}-2-propyl-phenoxy)-acetic acid ethyl ester] | 211 to 212 °C | 
14 | CCOC(=O)COc1ccc(C(=O)CN2Cc3cc(-c4noc(C)n4)ccc3C2=O)c(OC(C)=O)c1 [Example 80, (3-Acetoxy-4-{2-[5-(5-methyl-[1,2,4]oxadiazol-3-yl)-1-oxo-1,3-dihydro-isoindol-2-yl]acetyl}-phenoxy)-acetic acid ethyl ester] | 162 to 164 °C | 

Second part, led by results:

Row | melting point | SMILES | further results
15 | 199 to 200 °C | CCCc1c(OCC(=O)OCc2ccccc2)ccc(C(=O)CN2Cc3cc(C(=N)NO)ccc3C2=O)c1O [Example 59, (3-Hydroxy-4-{2-[5-(N-hydroxycarbamimidoyl)-1-oxo-1,3-dihydro-isoindol-2-yl]-acetyl}-2-propyl-phenoxy)-acetic acid benzyl ester] | 
16 | 158 to 159 °C | CCOC(=O)COc1ccc(O)c(C(=O)CN2Cc3cc(C(=N)NO)ccc3C2=O)c1 [Example 61, (4-Hydroxy-3-{2-[5-(N-hydroxycarbamimidoyl)-1-oxo-1,3-dihydro-isoindol-2-yl]-acetyl}-phenoxy)-acetic acid ethyl ester] | 
17 | 209 to 210 °C | CCOC(=O)COc1cc(O)c(C(=O)CN2Cc3cc(C(=N)NO)ccc3C2=O)c(OC)c1 [Example 62, (3-Hydroxy-4-{2-[5-(N-hydroxycarbamimidoyl)-1-oxo-1,3-dihydro-isoindol-2-yl]-acetyl}-5-methoxy-phenoxy)-acetic acid ethyl ester] | 
18 | 229 to 230 °C | CCOC(=O)COc1cc(O)c(C(=O)CN2Cc3cc(C(=N)NO)ccc3C2=O)c(O)c1 [Example 63, (3,5-Dihydroxy-4-{2-[5-(N-hydroxycarbamimidoyl)-1-oxo-1,3-dihydro-isoindol-2-yl]-acetyl}-phenoxy)-acetic acid ethyl ester] | 
19 | 153 to 155 °C | CCOC(=O)COc1ccc(C(=O)CN2Cc3cc(C(=N)NO)ccc3C2=O)c(O)c1OCC(=O)OCC [Example 64, (2-Ethoxycarbonylmethoxy-3-hydroxy-4-{2-[5-(N-hydroxycarbamimidoyl)-1-oxo-1,3-dihydro-isoindol-2-yl]-acetyl}-phenoxy)-acetic acid ethyl ester] | 
20 | 204 to 206 °C | CCOC(=O)COC1CCN(C(=O)CN2Cc3cc(C(=N)NO)ccc3C2=O)CC1 [Example 68, (1-{2-[5-(N-Hydroxycarbamimidoyl)-1-oxo-1,3-dihydro-isoindol-2-yl]-acetyl}-piperidin-4-yloxy)-acetic acid ethyl ester] | 
21 | 151 to 152 °C | CCOC(=O)COC1CCN(C(=O)CCN2Cc3cc(C(=N)NO)ccc3C2=O)CC1 [Example 69, (1-{3-[5-(N-Hydroxycarbamimidoyl)-1-oxo-1,3-dihydro-isoindol-2-yl]-propionyl}-piperidin-4-yloxy)-acetic acid ethyl ester] | 
22 | 192 to 194 °C | CCOC(=O)COc1ccc(C(=O)CN2Cc3cc(C(=N)NO)ccc3C2=O)c(OCC)c1 [Example 75, (3-Ethoxy-4-{2-[5-(N-hydroxycarbamimidoyl)-1-oxo-1,3-dihydro-isoindol-2-yl]-acetyl}-phenoxy)-acetic acid ethyl ester] | 
23 | 202 to 203 °C | CCOC(=O)COc1ccc(C(=O)CN2Cc3cc(C(=N)N)ccc3C2=O)c(OCC)c1 [Example 76, (4-{2-[5-carbamimidoyl-1-oxo-1,3-dihydro-isoindol-2-yl]-acetyl}-3-ethoxy-phenoxy)-acetic acid ethyl ester] | 
24 | 223 to 225 °C | CCOC(=O)COc1ccc(C(=O)CN2Cc3cc(-c4nc(=O)o[nH]4)ccc3C2=O)c(O)c1 [Example 78, (3-Hydroxy-4-{2-[1-oxo-5-(5-oxo-2,5-dihydro-[1,2,4]oxadiazol-3-yl)-1,3-dihydro-isoindol-2-yl]-acetyl}-phenoxy)-acetic acid ethyl ester] | 
